Assay results published in patent publication US11453703B2, “Heterotandem bicyclic peptide complexes” (BicycleTX Limited, priority 2018, dated 2022).

Molecular target: CD137 (Homo sapiens, UniProt Q07011)
Test: CD137 reporter assay, co-culture with EphA2 tumour cells
Format: cell-based
Parameters: host or cells: Jurkat reporter cells
Conditions: tumour target EphA2, co-culture with SC-OV-3, 6 h
Protocol: Culture medium referred to as R1 media is prepared by adding 1% FBS to RPMI-1640 (component of Promega kit CS196005). Serial dilutions of test articles in R1 are prepared in a sterile 96 well-plate. Use 25 μl per well of test articles or R1 (as a background control) to designated wells in white cell culture plate. Tumour cells* are harvested and resuspended at a concentration of 400,000 cells/mL in R1 media. Twenty five (25) μL/well tumour cells are used in white cell culture plate. Jurkat cells (Promega kit CS196005, 0.5 mL) are thawed in the water bath and then added to 5 ml pre-warmed R1 medium. Twenty five (25) μL/well Jurkat cells are used in white cell culture plate. Incubate the cells and test articles for 6h at 37° C., 5% CO2. At the end of 6 h, add 75 μl/well Bio-Glo™ (Promega) and incubate for 10 min before reading luminescence in a plate reader (Clariostar, BMG). The fold change relative to cells (Jurkat cells+Cell line used in co-culture) is calculated and plotted in GraphPad Prism as log(agonist) vs response to determine EC50 (nM) and Fold Induction over background (Max)

CD137, sequence (Q07011 24-255): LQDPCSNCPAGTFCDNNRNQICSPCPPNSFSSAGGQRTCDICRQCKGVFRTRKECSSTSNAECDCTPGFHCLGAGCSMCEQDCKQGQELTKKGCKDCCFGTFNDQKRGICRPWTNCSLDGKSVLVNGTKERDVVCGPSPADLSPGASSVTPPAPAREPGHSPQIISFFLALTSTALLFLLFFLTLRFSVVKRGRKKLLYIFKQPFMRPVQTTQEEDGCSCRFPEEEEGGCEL

Row | SMILES | Fold Induction over Background | EC50
1 | CCCC[C@@H]1NC(=O)[C@H](Cc2ccc(O)cc2)NC(=O)[C@@H]2CCCN2C(=O)[C@H](CC(=O)O)NC(=O)[C@H](C)NC(=O)[C@H](Cc2ccccc2)NC(=O)[C@@H]2CSCCC(=O)N3CN(CN(C3)C(=O)CCSC[C@@H](C(=O)N[C@@H](CNC(=O)CCOCCOCCOCCOCCOCCOCCOCCOCCOCCOCCOCCOCCn3cc(CCC(=O)NCCC(=O)N(C)CC(=O)N(C)CC(=O)N(C)CC(=O)N(C)CC(=O)N(C)CC(=O)N(C)CC(=O)N(C)CC(=O)N(C)CC(=O)N(C)CC(=O)N(C)CC(=O)N[C@@H](C)C(=O)N[C@@H](CCCCNC(=N)N)C(=O)N[C@@H](CC(=O)O)C(=O)N[C@H]4CSCCC(=O)N5CN6CN(C5)C(=O)CCSC[C@H](NC(=O)[C@H](CC(C)C)NC(=O)[C@@H]5CCCN5C(=O)[C@H](CC(N)=O)NC(=O)[C@H](C(C)C)NC(=O)[C@H](CC(C)C)NC(=O)[C@@H]5C[C@@H](O)CN5C4=O)C(=O)N[C@@H](CC(C)C)C(=O)N[C@@H](Cc4c[nH]cn4)C(=O)N4CCC[C@H]4C(=O)N[C@H](CC(=O)O)C(=O)N[C@@H](Cc4c[nH]c5ccccc45)C(=O)N[C@@H](CCCCNC(=N)N)C(=O)N[C@H](C(N)=O)CSCCC6=O)nn3)C(N)=O)NC1=O)C(=O)CCSC[C@H](NC(C)=O)C(=O)N[C@@H](CC(C)(C)C)C(=O)N1CCC[C@H]1C(=O)N[C@@H](CCC(=O)O)C(=O)N[C@H](C)C(=O)N1CCC[C@H]1C(=O)N[C@@H](Cc1ccc(O)cc1)C(=O)N2 [BCY9173] | 21 fold | 
2 | CCCC[C@@H]1NC(=O)[C@H](Cc2ccc(O)cc2)NC(=O)[C@@H]2CCCN2C(=O)[C@H](CC(=O)O)NC(=O)[C@H](C)NC(=O)[C@H](Cc2ccccc2)NC(=O)[C@@H]2CSCCC(=O)N3CN(CN(C3)C(=O)CCSC[C@@H](C(=O)N[C@@H](CNC(=O)CCOCCOCCOCCOCCOCCOCCOCCOCCOCCOCCOCCOCCOCCOCCOCCOCCOCCOCCOCCOCCOCCOCCOCCOCCOCCC(=O)NCCC(=O)N(C)CC(=O)N(C)CC(=O)N(C)CC(=O)N(C)CC(=O)N(C)CC(=O)N(C)CC(=O)N(C)CC(=O)N(C)CC(=O)N(C)CC(=O)N(C)CC(=O)N[C@@H](C)C(=O)N[C@@H](CCCCNC(=N)N)C(=O)N[C@@H](CC(=O)O)C(=O)N[C@H]3CSCCC(=O)N4CN5CN(C4)C(=O)CCSC[C@H](NC(=O)[C@H](CC(C)C)NC(=O)[C@@H]4CCCN4C(=O)[C@H](CC(N)=O)NC(=O)[C@H](C(C)C)NC(=O)[C@H](CC(C)C)NC(=O)[C@@H]4C[C@@H](O)CN4C3=O)C(=O)N[C@@H](CC(C)C)C(=O)N[C@@H](Cc3c[nH]cn3)C(=O)N3CCC[C@H]3C(=O)N[C@H](CC(=O)O)C(=O)N[C@@H](Cc3c[nH]c4ccccc34)C(=O)N[C@@H](CCCCNC(=N)N)C(=O)N[C@H](C(N)=O)CSCCC5=O)C(N)=O)NC1=O)C(=O)CCSC[C@H](NC(=O)[C@H](C)NC(C)=O)C(=O)N[C@@H]([C@@H](C)CC)C(=O)N[C@@H](CCC(=O)O)C(=O)N[C@@H](CCC(=O)O)C(=O)NCC(=O)N[C@@H](CCC(N)=O)C(=O)N[C@@H](Cc1ccc(O)cc1)C(=O)N2 [BCY9758] | 7 fold | 1.2 nM
